Like-named read-outs stand apart in the source and are kept apart here.
Assays:
Assay type in all cases: in vivo
Amaranthus retroflexus = test: greenhouse post-emergence herbicidal test, AMARE
Source text: (§1) The culture containers used were plastic flowerpots containing loamy sand with approximately 3.0% of humus as the substrate. The seeds of the test plants were sown separately for each species.
(§2) For the pre-emergence treatment, the active ingredients, which had been suspended or emulsified in water, were applied directly after sowing by means of finely distributing nozzles. The containers were irrigated gently to promote germination and growth and subsequently covered with transparent plastic hoods until the test plants had rooted. This cover caused uniform germination of the test plants, unless this had been impaired by the active ingredients. For the post-emergence treatment, the test plants were first grown to a height of 3 to 15 cm, depending on the plant habit, and only then treated with the active ingredients which had been suspended or emulsified in water. For this purpose, the test plants were either sown directly and grown in the same containers, or they were first grown separately as seedlings and transplanted into the test containers a few days prior to treatment.
(§3) Depending on the species, the test plants were kept at 10 - 25° C. or 20 - 35° C., respectively. The test period extended over 2 to 4 weeks. During this time, the test plants were tended, and their response to the individual treatments was evaluated.
(§4) Evaluation was carried out using a scale from 0 to 100. 100 means no emergence of the test plants, or complete destruction of at least the aerial moieties, and 0 means no damage, or normal course of growth. A good herbicidal activity is given at values of at least 70 and a very good herbicidal activity is given at values of at least 85.

Setaria viridis = test: greenhouse post-emergence herbicidal test, SETVI
Source text: as §1, §2, §3, §4

Chenopodium album = test: greenhouse post-emergence herbicidal test, CHEAL
Source text: as §1, §2, §3, §4

Lolium multiflorum = test: greenhouse post-emergence herbicidal test, LOLMU; details: scale from 0 to 100
Source text: as §1, §2, §3, §4

Avena fatua = test: greenhouse post-emergence herbicidal test, AVEFA; details: application rate 2 g/ha, scale from 0 to 100
Source text: as §1, §2, §3, §4

Alopecurus myosuroides = test: greenhouse post-emergence herbicidal test, ALOMY; details: scale from 0 to 100
Source text: as §1, §2, §3, §4

Echinocloa crus-galli = test: greenhouse post-emergence herbicidal test, ECHCG; details: scale from 0 to 100
Source text: as §1, §2, §3, §4

[1] = application rate 16 g/ha, AMARE, scale from 0 to 100, read-out: herbicidal activity
[2] = application rate 16 g/ha, SETVI, scale from 0 to 100, read-out: herbicidal activity
[3] = application rate 16 g/ha, CHEAL, scale from 0 to 100, read-out: herbicidal activity

C=CCOC(=O)C(OC)Oc1ccccc1Oc1cc(-n2c(=O)cc(C(F)(F)F)n(C)c2=O)c(F)cc1Br (racemic) [example 4, allyl rac-2-[2-[2-bromo-4-fluoro-5-[3-methyl-2,6-dioxo-4-(trifluoromethyl)pyrimidin-1-yl]phenoxy]phenoxy]-2-methoxy-acetate]
pest or weed control at 16 g/ha (Amaranthus retroflexus; [1]): > 85% | pest or weed control at 16 g/ha (Setaria viridis; [2]): > 85% | pest or weed control at 16 g/ha (Chenopodium album; [3]): > 85%

C#CCOC(=O)C(OC)Oc1ccccc1Oc1cc(-n2c(=O)cc(C(F)(F)F)n(C)c2=O)c(F)cc1Br (racemic) [example 5, prop-2-ynyl rac-2-[2-[2-bromo-4-fluoro-5-[3-methyl-2,6-dioxo-4-(trifluoromethyl)pyrimidin-1-yl]phenoxy]phenoxy]-2-methoxy-acetate]
pest or weed control at 16 g/ha (Amaranthus retroflexus; [1]): > 85% | pest or weed control at 16 g/ha (Setaria viridis; [2]): > 85% | pest or weed control at 16 g/ha (Chenopodium album; [3]): > 85%

COCCOC(=O)C(OC)Oc1ccccc1Oc1cc(-n2c(=O)cc(C(F)(F)F)n(C)c2=O)c(F)cc1Br (racemic) [example 6, 2-methoxyethyl rac-2-[2-[2-bromo-4-fluoro-5-[3-methyl-2,6-dioxo-4-(trifluoromethyl)pyrimidin-1-yl]phenoxy]phenoxy]-2-methoxy-acetate]
pest or weed control at 16 g/ha (Amaranthus retroflexus; [1]): > 85% | pest or weed control at 16 g/ha (Setaria viridis; [2]): > 70% | pest or weed control at 16 g/ha (Chenopodium album; [3]): > 70%

COC(Oc1ccccc1Oc1cc(-n2c(=O)cc(C(F)(F)F)n(C)c2=O)c(F)cc1Br)C(=O)NS(C)(=O)=O (racemic) [example 8, rac-2-[2-[2-bromo-4-fluoro-5-[3-methyl-2,6-dioxo-4-(trifluoromethyl)pyrimidin-1-yl]phenoxy]phenoxy]-2-methoxy-N-methylsulfonyl-acetamide]
pest or weed control at 16 g/ha (Amaranthus retroflexus; [1]): > 85% | pest or weed control at 16 g/ha (Setaria viridis; [2]): > 85% | pest or weed control at 16 g/ha (Chenopodium album; [3]): > 85%

COC(=O)C(Oc1ccccc1Oc1cc(-n2c(=O)cc(C(F)(F)F)n(C)c2=O)c(F)cc1Br)SC (racemic) [example 9, methyl rac-2-[2-[2-bromo-4-fluoro-5-[3-methyl-2,6-dioxo-4-(trifluoromethyl)pyrimidin-1-yl]phenoxy]phenoxy]-2-methylsulfanyl-acetate]
pest or weed control at 16 g/ha (Amaranthus retroflexus; [1]): > 85% | pest or weed control at 16 g/ha (Setaria viridis; [2]): > 85% | pest or weed control at 16 g/ha (Chenopodium album; [3]): > 85%

CCOC(=O)C(F)Oc1ccccc1Oc1cc(-n2c(=O)cc(C(F)(F)F)n(C)c2=O)c(F)cc1Br (racemic) [example 10, ethyl rac-2-[2-[2-bromo-4-fluoro-5-[3-methyl-2,6-dioxo-4-(trifluoromethyl)pyrimidin-1-yl]phenoxy]phenoxy]-2-fluoro-acetate]
pest or weed control at 16 g/ha (Amaranthus retroflexus; [1]): > 85% | pest or weed control at 16 g/ha (Setaria viridis; [2]): > 85% | pest or weed control at 16 g/ha (Chenopodium album; [3]): > 85%

COC(=O)C(OC)Oc1ccccc1Oc1cc(-n2c(=O)c(C)c(C(F)(F)F)n(C)c2=O)c(F)cc1Br (racemic) [example 11, methyl rac-2-[2-[2-bromo-5-[3,5-dimethyl-2,6-dioxo-4-(trifluoromethyl)pyrimidin-1-yl]-4-fluoro-phenoxy]phenoxy]-2-methoxy-acetate]
pest or weed control at 16 g/ha (Amaranthus retroflexus; [1]): > 85% | pest or weed control at 16 g/ha (Setaria viridis; [2]): > 85% | pest or weed control at 16 g/ha (Chenopodium album; [3]): > 85%

COC(=O)C(OC)Oc1ncccc1Oc1cc(-n2c(=O)cc(C(F)(F)F)n(C)c2=O)c(F)cc1Br (racemic) [example 12, methyl rac-2-[[3-[2-bromo-4-fluoro-5-[3-methyl-2,6-dioxo-4-(trifluoromethyl)pyrimidin-1-yl]phenoxy]-2-pyridyl]oxy]-2-methoxy-acetate]
pest or weed control at 16 g/ha (Amaranthus retroflexus; [1]): > 85% | pest or weed control at 16 g/ha (Chenopodium album; [3]): > 85%

COC(=O)C(OC)Oc1ccccc1Oc1cc(-n2c(=O)cc(C(F)(F)F)n(C)c2=O)c(F)cc1Cl (centres unmarked) [cmpd 3 (WO 11/137088)]
damages (Lolium multiflorum; application rate 4 g/ha): 60 | damages (Lolium multiflorum; application rate 8 g/ha): 75 | damages (Avena fatua): 65 | damages (Alopecurus myosuroides; application rate 4 g/ha): 75 | damages (Alopecurus myosuroides; application rate 8 g/ha): 80 | damages (Echinocloa crus-galli; application rate 1 g/ha): 45 | damages (Echinocloa crus-galli; application rate 2 g/ha): 90

COC(=O)C(OC)Oc1ccccc1Oc1nc(-n2c(=O)cc(C(F)(F)F)n(C)c2=O)c(F)cc1Br (centres unmarked) [cmpd I.a.646 (WO 17/202768)]
damages (Lolium multiflorum; application rate 4 g/ha): 60 | damages (Lolium multiflorum; application rate 8 g/ha): 65 | damages (Avena fatua): 40 | damages (Alopecurus myosuroides; application rate 4 g/ha): 50 | damages (Alopecurus myosuroides; application rate 8 g/ha): 70 | damages (Echinocloa crus-galli; application rate 1 g/ha): 25 | damages (Echinocloa crus-galli; application rate 2 g/ha): 65

COC(=O)C(OC)Oc1ccccc1Oc1cc(-n2c(=O)cc(C(F)(F)F)n(C)c2=O)c(F)cc1Br (centres unmarked) [example 1, Methyl 2-[2-[2-bromo-4-fluoro-5-[3-methyl-2,6-dioxo-4-(trifluoromethyl)pyrimidin-1-yl]phenoxy]phenoxy]-2-methoxy-acetate]
pest or weed control at 16 g/ha (Amaranthus retroflexus; read-out: herbicidal activity): > 85% | damages (Lolium multiflorum; application rate 4 g/ha): 75 | damages (Lolium multiflorum; application rate 8 g/ha): 85 | pest or weed control at 16 g/ha (Setaria viridis; read-out: herbicidal activity): > 85% | damages (Avena fatua): 85 | pest or weed control at 16 g/ha (Chenopodium album; read-out: herbicidal activity): > 85% | damages (Alopecurus myosuroides; application rate 4 g/ha): 95 | damages (Alopecurus myosuroides; application rate 8 g/ha): 95 | damages (Echinocloa crus-galli; application rate 1 g/ha): 90 | damages (Echinocloa crus-galli; application rate 2 g/ha): 98
